# Experimental data: patent US20090270448A1, “PHARMACEUTICAL FORMULATIONS COMPRISING CLOPIDOGREL” (ACINO PHARMA AG, priority 2006, published 2009)
# Counter-ions that a name gives are not always drawn.
# What was measured:
# [1] = Storage stability of clopidogrel besylate and melt granulates containing it (HPLC impurities); assay type: physicochemical
# Method: The stability on storage of clopidogrel besylate salt (CLO.Bes) is examined in comparison to melt granulates containing it. The main degradation product is alpha-(2-chlorophenyl)-4,5,6,7-tetrahydrothieno[3,2-c]pyridine-5-acetic acid, hereinafter designated as “ImpA” (ImpA is named according to USP 29 and corresponds to the hydrolysis product of Clopidogrel). In addition, the sum of all impurities (“SumImp”) is determined. Both ImpA and SumImp are expressed as percent by weight of the amount of the clopidogrel salt at the beginning of the experiment on day 0 and are determined using the HPLC-system described below.
# In the below Table 1 for example the term “10% PEG 6000” means the melt granulate consisting of 10% by weight PEG 6000 and 90% by weight clopidogrel besylate, 30% PEG 6000 means the melt granulate consisting of 30% by weight PEG 6000 and 70% by weight clopidogrel besylate, etc.
# The above-mentioned HPLC system is as follows:
# Column: 250 mm×4.6 mm Modulo-Cart QS Uptisphere HDO, 3 μm
# Detector: UV Detector or DAD Detector
# Eluent A: 0.01M sodium phosphate dibasic aqueous solution (1.78 g Na2HPO4*2H2O/l), adjusted to pH 3.0±0.05 with phosphoric acid 85%
# Mobile phase: 35% Eluent A+65% Eluent B
# Preparation of Reference and Sample Solutions:
# Approximately 55.92 mg of clopidogrel besilate reference substance are weighed into a 50 ml volumetric flask. Add 20 ml of mobile phase and sonicate in an ultrasonic bath at ambient temperature until the substance is dissolved (approx. 5 min). Make up to the mark with mobile phase. The concentration of clopidogrel besilate is 0.75 mg/ml as free base. Two independent reference solutions are prepared.
# Sample Solution for 75 mg Tablets
# Weigh 10 tablets and transfer them quantitatively into a 250 ml volumetric flask. Dissolve and make up to the mark with mobile phase. Dilute 25.0 ml to 100.0 ml with mobile phase. Filter through a 0.45 μm PTFE-filter in a HPLC vial. The concentration of clopidogrel is 0.75 mg/ml as free base. Two independent sample solutions are prepared.
# [2] = Storage stability of clopidogrel hydrochloride and melt granulates containing it (HPLC impurities); assay type: physicochemical
# Method: The stability on storage of clopidogrel hydrochloride salt (CLO.HCl) has been examined in comparison to melt granulates containing it. The main degradation product is alpha-(2-chlorophenyl)-4,5,6,7-tetrahydrothieno[3,2-c]pyridine-5-acetic acid, hereinafter designated as “ImpA” (impurity acid). In addition, the sum of all impurities (“SumImp”) is determined by HPLC analogously as described above for clopidogrel besylate. Both ImpA and SumImp are expressed as percent by weight of the amount of the clopidogrel salt at the beginning of the experiment on day 0. The granulates mentioned in the below Table 2 are melt granulates consisting of 50% by weight of PEG 6000 and 50% clopidogrel hydrochloride, and 50% Compritol 888 ATO and 50% clopidogrel hydrochloride, respectively.
# [3] = Day 0, percent by weight of the clopidogrel salt at day 0, HPLC
# [4] = Day 15 at 50° C. and 75% relative humidity
# [5] = Day 30 at 40° C. and 75% relative humidity
"ImpA [%] [1, 3] [%]","SumImp [%] ([1]; Day 0, sum of all impurities, percent by weight of the clopidogrel salt at day 0, HPLC)","ImpA [%] [1, 4] [%]","SumImp [%] [1, 4] [%]",SumImp [%] ([2]; Day 0),"ImpA [%] [2, 3] [%]","ImpA [%] [2, 5] [%]","SumImp [%] [2, 5] [%]",impurities relative to clopidogrel hydrochloride stabilized in the melt granulates ([2]; after storage for 30 days at 40° C. and 75% relative humidity),Compound
0.09,0.24,0.34,0.52,,,,,,"COC(=O)[C@H](c1ccccc1Cl)N1CCc2sccc2C1 [CLO•Bes, clopidogrel besylate]"
,,,,0.58,0.18,1.28,1.99,nearly twice as much impurities,"COC(=O)[C@H](c1ccccc1Cl)N1CCc2sccc2C1 [CLO•HCl, clopidogrel hydrochloride]"
